Assay results taken from the OligoGym collection.
Oligonucleotides are given in HELM: sugar(base)linkage, 5' to 3'; d 2'-deoxyribose, r ribose, m 2'-O-methylribose, p phosphate. ss, as = sense and antisense strand
Further: test concentration or dose not given here.

What follows are substances tested against UBE2D3 (assay: reporter assay of Huesken 2005). Settings: siRNA.
“RNA1{r(A)p.r(G)p.r(C)p.r(A)p.r(U)p.r(U)p.r(U)p.r(G)p.r(U)p.r(C)p.r(U)p.r(C)p.r(G)p.r(A)p.r(U)p.r(A)p.r(U)p.r(U)p.r(C)p.d(T)p.d(T)}|RNA2{r(G)p.r(A)p.r(A)p.r(U)p.r(A)p.r(U)p.r(C)p.r(G)p.r(A)p.r(G)p.r(A)p.r(C)p.r(A)p.r(A)p.r(A)p.r(U)p.r(G)p.r(C)p.r(U)p.d(G)p.d(C)}$$$RNA1{StrandType:ss}|RNA2{StrandType:as}$” was tested, and the normalised inhibition (eCFP-eYFP dual reporter) was 79.2%. In the case of “RNA1{r(C)p.r(U)p.r(A)p.r(U)p.r(G)p.r(U)p.r(G)p.r(A)p.r(U)p.r(C)p.r(C)p.r(A)p.r(A)p.r(A)p.r(C)p.r(C)p.r(C)p.r(A)p.r(G)p.d(T)p.d(T)}|RNA2{r(C)p.r(U)p.r(G)p.r(G)p.r(G)p.r(U)p.r(U)p.r(U)p.r(G)p.r(G)p.r(A)p.r(U)p.r(C)p.r(A)p.r(C)p.r(A)p.r(U)p.r(A)p.r(G)p.d(C)p.d(A)}$$$RNA1{StrandType:ss}|RNA2{StrandType:as}$”, the normalised inhibition (eCFP-eYFP dual reporter) is reported as 95.8%. In the case of “RNA1{r(U)p.r(A)p.r(A)p.r(G)p.r(A)p.r(U)p.r(C)p.r(A)p.r(C)p.r(A)p.r(G)p.r(U)p.r(G)p.r(G)p.r(U)p.r(C)p.r(G)p.r(C)p.r(C)p.d(T)p.d(T)}|RNA2{r(G)p.r(G)p.r(C)p.r(G)p.r(A)p.r(C)p.r(C)p.r(A)p.r(C)p.r(U)p.r(G)p.r(U)p.r(G)p.r(A)p.r(U)p.r(C)p.r(U)p.r(U)p.r(A)p.d(G)p.d(A)}$$$RNA1{StrandType:ss}|RNA2{StrandType:as}$”, the normalised inhibition (eCFP-eYFP dual reporter) is reported as 55.6%. In the case of “RNA1{r(U)p.r(G)p.r(C)p.r(A)p.r(U)p.r(U)p.r(U)p.r(A)p.r(C)p.r(A)p.r(A)p.r(C)p.r(A)p.r(A)p.r(G)p.r(A)p.r(A)p.r(U)p.r(U)p.d(T)p.d(T)}|RNA2{r(A)p.r(A)p.r(U)p.r(U)p.r(C)p.r(U)p.r(U)p.r(G)p.r(U)p.r(U)p.r(G)p.r(U)p.r(A)p.r(A)p.r(A)p.r(U)p.r(G)p.r(C)p.r(A)p.d(A)p.d(C)}$$$RNA1{StrandType:ss}|RNA2{StrandType:as}$”, the normalised inhibition (eCFP-eYFP dual reporter) is reported as 83.3%. “RNA1{r(U)p.r(G)p.r(G)p.r(U)p.r(C)p.r(G)p.r(C)p.r(C)p.r(U)p.r(G)p.r(C)p.r(U)p.r(U)p.r(U)p.r(A)p.r(A)p.r(C)p.r(A)p.r(A)p.d(T)p.d(T)}|RNA2{r(U)p.r(U)p.r(G)p.r(U)p.r(U)p.r(A)p.r(A)p.r(A)p.r(G)p.r(C)p.r(A)p.r(G)p.r(G)p.r(C)p.r(G)p.r(A)p.r(C)p.r(C)p.r(A)p.d(C)p.d(T)}$$$RNA1{StrandType:ss}|RNA2{StrandType:as}$” gave a normalised inhibition (eCFP-eYFP dual reporter) of 90.3%. Substance “RNA1{r(A)p.r(A)p.r(G)p.r(G)p.r(U)p.r(U)p.r(G)p.r(C)p.r(A)p.r(U)p.r(U)p.r(U)p.r(A)p.r(C)p.r(A)p.r(A)p.r(C)p.r(A)p.r(A)p.d(T)p.d(T)}|RNA2{r(U)p.r(U)p.r(G)p.r(U)p.r(U)p.r(G)p.r(U)p.r(A)p.r(A)p.r(A)p.r(U)p.r(G)p.r(C)p.r(A)p.r(A)p.r(C)p.r(C)p.r(U)p.r(U)p.d(A)p.d(G)}$$$RNA1{StrandType:ss}|RNA2{StrandType:as}$” has a normalised inhibition (eCFP-eYFP dual reporter) of 83%. With “RNA1{r(U)p.r(U)p.r(C)p.r(U)p.r(G)p.r(C)p.r(A)p.r(G)p.r(G)p.r(U)p.r(C)p.r(C)p.r(A)p.r(G)p.r(U)p.r(U)p.r(G)p.r(G)p.r(G)p.d(T)p.d(T)}|RNA2{r(C)p.r(C)p.r(C)p.r(A)p.r(A)p.r(C)p.r(U)p.r(G)p.r(G)p.r(A)p.r(C)p.r(C)p.r(U)p.r(G)p.r(C)p.r(A)p.r(G)p.r(A)p.r(A)p.d(C)p.d(A)}$$$RNA1{StrandType:ss}|RNA2{StrandType:as}$” the normalised inhibition (eCFP-eYFP dual reporter) was 50%. “RNA1{r(G)p.r(G)p.r(U)p.r(C)p.r(C)p.r(A)p.r(G)p.r(U)p.r(U)p.r(G)p.r(G)p.r(G)p.r(G)p.r(A)p.r(U)p.r(G)p.r(A)p.r(U)p.r(A)p.d(T)p.d(T)}|RNA2{r(U)p.r(A)p.r(U)p.r(C)p.r(A)p.r(U)p.r(C)p.r(C)p.r(C)p.r(C)p.r(A)p.r(A)p.r(C)p.r(U)p.r(G)p.r(G)p.r(A)p.r(C)p.r(C)p.d(T)p.d(G)}$$$RNA1{StrandType:ss}|RNA2{StrandType:as}$” was tested, and the normalised inhibition (eCFP-eYFP dual reporter) was 93.7%. “RNA1{r(U)p.r(C)p.r(U)p.r(C)p.r(G)p.r(A)p.r(U)p.r(A)p.r(U)p.r(U)p.r(C)p.r(U)p.r(A)p.r(A)p.r(G)p.r(A)p.r(U)p.r(C)p.r(A)p.d(T)p.d(T)}|RNA2{r(U)p.r(G)p.r(A)p.r(U)p.r(C)p.r(U)p.r(U)p.r(A)p.r(G)p.r(A)p.r(A)p.r(U)p.r(A)p.r(U)p.r(C)p.r(G)p.r(A)p.r(G)p.r(A)p.d(C)p.d(A)}$$$RNA1{StrandType:ss}|RNA2{StrandType:as}$” showed a normalised inhibition (eCFP-eYFP dual reporter) of 98.1%. With “RNA1{r(U)p.r(C)p.r(U)p.r(A)p.r(A)p.r(A)p.r(G)p.r(U)p.r(U)p.r(C)p.r(U)p.r(U)p.r(U)p.r(U)p.r(A)p.r(U)p.r(C)p.r(C)p.r(A)p.d(T)p.d(T)}|RNA2{r(U)p.r(G)p.r(G)p.r(A)p.r(U)p.r(A)p.r(A)p.r(A)p.r(A)p.r(G)p.r(A)p.r(A)p.r(C)p.r(U)p.r(U)p.r(U)p.r(A)p.r(G)p.r(A)p.d(A)p.d(A)}$$$RNA1{StrandType:ss}|RNA2{StrandType:as}$” the normalised inhibition (eCFP-eYFP dual reporter) was 64.2%. For “RNA1{r(C)p.r(A)p.r(G)p.r(U)p.r(A)p.r(A)p.r(U)p.r(G)p.r(G)p.r(C)p.r(A)p.r(G)p.r(C)p.r(A)p.r(U)p.r(U)p.r(U)p.r(G)p.r(U)p.d(T)p.d(T)}|RNA2{r(A)p.r(C)p.r(A)p.r(A)p.r(A)p.r(U)p.r(G)p.r(C)p.r(U)p.r(G)p.r(C)p.r(C)p.r(A)p.r(U)p.r(U)p.r(A)p.r(C)p.r(U)p.r(G)p.d(T)p.d(T)}$$$RNA1{StrandType:ss}|RNA2{StrandType:as}$”, the normalised inhibition (eCFP-eYFP dual reporter) was 97.4%. For “RNA1{r(G)p.r(C)p.r(A)p.r(A)p.r(G)p.r(C)p.r(C)p.r(A)p.r(C)p.r(A)p.r(A)p.r(U)p.r(U)p.r(A)p.r(U)p.r(G)p.r(G)p.r(G)p.r(A)p.d(T)p.d(T)}|RNA2{r(U)p.r(C)p.r(C)p.r(C)p.r(A)p.r(U)p.r(A)p.r(A)p.r(U)p.r(U)p.r(G)p.r(U)p.r(G)p.r(G)p.r(C)p.r(U)p.r(U)p.r(G)p.r(C)p.d(C)p.d(A)}$$$RNA1{StrandType:ss}|RNA2{StrandType:as}$”, the normalised inhibition (eCFP-eYFP dual reporter) was 75.8%. Work on “RNA1{r(U)p.r(G)p.r(C)p.r(U)p.r(A)p.r(U)p.r(G)p.r(U)p.r(G)p.r(A)p.r(U)p.r(C)p.r(C)p.r(A)p.r(A)p.r(A)p.r(C)p.r(C)p.r(C)p.d(T)p.d(T)}|RNA2{r(G)p.r(G)p.r(G)p.r(U)p.r(U)p.r(U)p.r(G)p.r(G)p.r(A)p.r(U)p.r(C)p.r(A)p.r(C)p.r(A)p.r(U)p.r(A)p.r(G)p.r(C)p.r(A)p.d(G)p.d(T)}$$$RNA1{StrandType:ss}|RNA2{StrandType:as}$” yielded a normalised inhibition (eCFP-eYFP dual reporter) of 42.2%. For “RNA1{r(C)p.r(C)p.r(U)p.r(A)p.r(C)p.r(A)p.r(G)p.r(A)p.r(C)p.r(U)p.r(A)p.r(C)p.r(C)p.r(C)p.r(C)p.r(U)p.r(U)p.r(C)p.r(A)p.d(T)p.d(T)}|RNA2{r(U)p.r(G)p.r(A)p.r(A)p.r(G)p.r(G)p.r(G)p.r(G)p.r(U)p.r(A)p.r(G)p.r(U)p.r(C)p.r(U)p.r(G)p.r(U)p.r(A)p.r(G)p.r(G)p.d(A)p.d(A)}$$$RNA1{StrandType:ss}|RNA2{StrandType:as}$”, the normalised inhibition (eCFP-eYFP dual reporter) was 99.9%. “RNA1{r(G)p.r(C)p.r(A)p.r(C)p.r(A)p.r(A)p.r(U)p.r(G)p.r(U)p.r(U)p.r(C)p.r(U)p.r(G)p.r(C)p.r(A)p.r(G)p.r(G)p.r(U)p.r(C)p.d(T)p.d(T)}|RNA2{r(G)p.r(A)p.r(C)p.r(C)p.r(U)p.r(G)p.r(C)p.r(A)p.r(G)p.r(A)p.r(A)p.r(C)p.r(A)p.r(U)p.r(U)p.r(G)p.r(U)p.r(G)p.r(C)p.d(T)p.d(G)}$$$RNA1{StrandType:ss}|RNA2{StrandType:as}$” showed a normalised inhibition (eCFP-eYFP dual reporter) of 100%. For “RNA1{r(A)p.r(U)p.r(U)p.r(U)p.r(A)p.r(C)p.r(A)p.r(A)p.r(C)p.r(A)p.r(A)p.r(G)p.r(A)p.r(A)p.r(U)p.r(U)p.r(U)p.r(A)p.r(U)p.d(T)p.d(T)}|RNA2{r(A)p.r(U)p.r(A)p.r(A)p.r(A)p.r(U)p.r(U)p.r(C)p.r(U)p.r(U)p.r(G)p.r(U)p.r(U)p.r(G)p.r(U)p.r(A)p.r(A)p.r(A)p.r(U)p.d(G)p.d(C)}$$$RNA1{StrandType:ss}|RNA2{StrandType:as}$”, the normalised inhibition (eCFP-eYFP dual reporter) was 74.4%. “RNA1{r(A)p.r(A)p.r(U)p.r(G)p.r(A)p.r(C)p.r(A)p.r(G)p.r(C)p.r(C)p.r(C)p.r(A)p.r(U)p.r(A)p.r(U)p.r(C)p.r(A)p.r(A)p.r(G)p.d(T)p.d(T)}|RNA2{r(C)p.r(U)p.r(U)p.r(G)p.r(A)p.r(U)p.r(A)p.r(U)p.r(G)p.r(G)p.r(G)p.r(C)p.r(U)p.r(G)p.r(U)p.r(C)p.r(A)p.r(U)p.r(U)p.d(A)p.d(G)}$$$RNA1{StrandType:ss}|RNA2{StrandType:as}$” showed a normalised inhibition (eCFP-eYFP dual reporter) of 80%. With “RNA1{r(C)p.r(A)p.r(U)p.r(U)p.r(G)p.r(G)p.r(C)p.r(A)p.r(A)p.r(G)p.r(C)p.r(C)p.r(A)p.r(C)p.r(A)p.r(A)p.r(U)p.r(U)p.r(A)p.d(T)p.d(T)}|RNA2{r(U)p.r(A)p.r(A)p.r(U)p.r(U)p.r(G)p.r(U)p.r(G)p.r(G)p.r(C)p.r(U)p.r(U)p.r(G)p.r(C)p.r(C)p.r(A)p.r(A)p.r(U)p.r(G)p.d(A)p.d(A)}$$$RNA1{StrandType:ss}|RNA2{StrandType:as}$” the normalised inhibition (eCFP-eYFP dual reporter) was 100%. “RNA1{r(G)p.r(G)p.r(C)p.r(A)p.r(A)p.r(G)p.r(C)p.r(C)p.r(A)p.r(C)p.r(A)p.r(A)p.r(U)p.r(U)p.r(A)p.r(U)p.r(G)p.r(G)p.r(G)p.d(T)p.d(T)}|RNA2{r(C)p.r(C)p.r(C)p.r(A)p.r(U)p.r(A)p.r(A)p.r(U)p.r(U)p.r(G)p.r(U)p.r(G)p.r(G)p.r(C)p.r(U)p.r(U)p.r(G)p.r(C)p.r(C)p.d(A)p.d(A)}$$$RNA1{StrandType:ss}|RNA2{StrandType:as}$” showed a normalised inhibition (eCFP-eYFP dual reporter) of 60.2%. With “RNA1{r(G)p.r(A)p.r(U)p.r(U)p.r(G)p.r(C)p.r(A)p.r(C)p.r(G)p.r(G)p.r(A)p.r(U)p.r(C)p.r(U)p.r(A)p.r(U)p.r(A)p.r(A)p.r(A)p.d(T)p.d(T)}|RNA2{r(U)p.r(U)p.r(U)p.r(A)p.r(U)p.r(A)p.r(G)p.r(A)p.r(U)p.r(C)p.r(C)p.r(G)p.r(U)p.r(G)p.r(C)p.r(A)p.r(A)p.r(U)p.r(C)p.d(T)p.d(C)}$$$RNA1{StrandType:ss}|RNA2{StrandType:as}$” the normalised inhibition (eCFP-eYFP dual reporter) was 92.4%.
